Species: Rattus norvegicus
Assay: Open TG-GATES - Regimen: Daily Repeat
Type: toxicity, organism-based, Sprague-Dawley
Parameters: regimen Daily Repeat, gender Male, age 6 weeks
Conditions: in vivo, po, route gavage; for APTT / Bas / Eos / Fbg / Hb / Ht / Lym / MCH / MCHC / MCV / Mono / Neu / PT / Plat / RBC / Ret / WBC: tissue Blood; for KIDNEY_L / KIDNEY_R / KIDNEY_TOTAL: tissue Kidney; for LIVER: tissue Liver; for A/G / ALP / ALT / AST / BUN / CRE / Ca / Cl / DBIL / GLC / IP / K / LDH / Na / PL / RALB / TBIL / TC / TG / TP / gamma-GTP: tissue Plasma
[1] = 30 mg/kg, 72 h, dose level Middle, time 3 day
[2] = 30 mg/kg, […], dose level Middle, time 7 day
[3] = 30 mg/kg, […], dose level Middle, time 14 day
[4] = 30 mg/kg, […], dose level Middle, time 28 day
[5] = 100 mg/kg, 72 h, dose level High, time 3 day
[6] = 100 mg/kg, […], dose level High, time 7 day
[7] = 100 mg/kg, […], dose level High, time 14 day
[8] = 100 mg/kg, […], dose level High, time 28 day

CN(C)CCN(Cc1cccs1)c1ccccn1
TERMINAL_BW [1]: 210.2 g
APTT [1]: 20.9 s
Bas [1]: 0%
Eos [1]: 0.6%
Fbg [1]: 325.4 mg/dL
Hb [1]: 13.2 g/dL
Ht [1]: 38.8%
Lym [1]: 80%
MCH [1]: 21.7 pg
MCHC [1]: 34%
MCV [1]: 63.8 fL
Mono [1]: 2%
Neu [1]: 16.4%
PT [1]: 15.9 s
Plat [1]: 116.7 x10_4/uL
RBC [1]: 609 x10_4/ul
Ret [1]: 6.1%
WBC [1]: 94.3 x10_2/uL
KIDNEY_L [1]: 1 g
KIDNEY_R [1]: 1 g
KIDNEY_TOTAL [1]: 2 g
LIVER [1]: 10.2 g
A/G [1]: 1.2
ALP [1]: 1737.4 IU/L
ALT [1]: 45.2 IU/L
AST [1]: 75.8 IU/L
BUN [1]: 15 mg/dL
CRE [1]: 0.1 mg/dL
Ca [1]: 11 mg/dL
Cl [1]: 106.2 meq/L
DBIL [1]: 0 mg/dL
GLC [1]: 175.4 mg/dL
IP [1]: 7.7 mg/dL
K [1]: 4.3 meq/L
LDH [1]: 224.4 IU/L
Na [1]: 142 meq/L
PL [1]: 140.8 mg/dL
RALB [1]: 2.9 g/dL
TBIL [1]: 0.012 mg/dL
TC [1]: 72.6 mg/dL
TG [1]: 82 mg/dL
TP [1]: 5.4 g/dL
gamma-GTP [1]: 1.2 IU/L
TERMINAL_BW [2]: 254.5 g
TERMINAL_BW [3]: 275 g
TERMINAL_BW [4]: 322.8 g
APTT [2]: 20.7 s
Bas [2]: 0%
Eos [2]: 0.8%
Fbg [2]: 304.2 mg/dL
Hb [2]: 13.2 g/dL
Ht [2]: 39.1%
Lym [2]: 78.6%
MCH [2]: 21.4 pg
MCHC [2]: 33.7%
MCV [2]: 63.5 fL
Mono [2]: 1.6%
Neu [2]: 18%
PT [2]: 15.9 s
Plat [2]: 120.9 x10_4/uL
RBC [2]: 617 x10_4/ul
Ret [2]: 6.3%
WBC [2]: 124 x10_2/uL
APTT [3]: 21.4 s
Bas [3]: 0%
Eos [3]: 1%
Fbg [3]: 309.6 mg/dL
Hb [3]: 14.2 g/dL
Ht [3]: 41.2%
Lym [3]: 77.8%
MCH [3]: 20.5 pg
MCHC [3]: 34.4%
MCV [3]: 59.6 fL
Mono [3]: 2.4%
Neu [3]: 18.6%
PT [3]: 16.2 s
Plat [3]: 108.7 x10_4/uL
RBC [3]: 691.6 x10_4/ul
Ret [3]: 3.9%
WBC [3]: 110.7 x10_2/uL
APTT [4]: 20.7 s
Bas [4]: 0%
Eos [4]: 1.4%
Fbg [4]: 282 mg/dL
Hb [4]: 14.6 g/dL
Ht [4]: 42.2%
Lym [4]: 74.2%
MCH [4]: 19.2 pg
MCHC [4]: 34.5%
MCV [4]: 55.5 fL
Mono [4]: 2.6%
Neu [4]: 21.4%
PT [4]: 16.1 s
Plat [4]: 106.9 x10_4/uL
RBC [4]: 760.6 x10_4/ul
Ret [4]: 2.7%
WBC [4]: 115.8 x10_2/uL
KIDNEY_L [2]: 1.1 g
KIDNEY_R [2]: 1.1 g
KIDNEY_TOTAL [2]: 2.2 g
KIDNEY_L [3]: 1.1 g
KIDNEY_R [3]: 1.2 g
KIDNEY_TOTAL [3]: 2.3 g
KIDNEY_L [4]: 1.3 g
KIDNEY_R [4]: 1.3 g
KIDNEY_TOTAL [4]: 2.5 g
LIVER [2]: 11.7 g
LIVER [3]: 11.9 g
LIVER [4]: 13.7 g
A/G [2]: 1.1
ALP [2]: 1578.6 IU/L
ALT [2]: 40.4 IU/L
AST [2]: 69.2 IU/L
BUN [2]: 17.6 mg/dL
CRE [2]: 0.2 mg/dL
Ca [2]: 10.7 mg/dL
Cl [2]: 107 meq/L
DBIL [2]: 0 mg/dL
GLC [2]: 170.4 mg/dL
IP [2]: 7 mg/dL
K [2]: 4.3 meq/L
LDH [2]: 132.4 IU/L
Na [2]: 144.4 meq/L
PL [2]: 134.4 mg/dL
RALB [2]: 2.9 g/dL
TBIL [2]: 0.012 mg/dL
TC [2]: 71.4 mg/dL
TG [2]: 64.8 mg/dL
TP [2]: 5.4 g/dL
gamma-GTP [2]: 1.8 IU/L
A/G [3]: 1.1
ALP [3]: 1753 IU/L
ALT [3]: 54.4 IU/L
AST [3]: 98.2 IU/L
BUN [3]: 18.8 mg/dL
CRE [3]: 0.2 mg/dL
Ca [3]: 10.3 mg/dL
Cl [3]: 107.8 meq/L
DBIL [3]: 0.008 mg/dL
GLC [3]: 166.8 mg/dL
IP [3]: 6.8 mg/dL
K [3]: 4.1 meq/L
LDH [3]: 177.4 IU/L
Na [3]: 143.8 meq/L
PL [3]: 131.8 mg/dL
RALB [3]: 2.9 g/dL
TBIL [3]: 0.026 mg/dL
TC [3]: 70.2 mg/dL
TG [3]: 56 mg/dL
TP [3]: 5.5 g/dL
gamma-GTP [3]: 2 IU/L
A/G [4]: 1.1
ALP [4]: 1511.8 IU/L
ALT [4]: 74.6 IU/L
AST [4]: 129.2 IU/L
BUN [4]: 17.6 mg/dL
CRE [4]: 0.2 mg/dL
Ca [4]: 10.3 mg/dL
Cl [4]: 107 meq/L
DBIL [4]: 0.008 mg/dL
GLC [4]: 169 mg/dL
IP [4]: 6.2 mg/dL
K [4]: 4.2 meq/L
LDH [4]: 182.2 IU/L
Na [4]: 141.8 meq/L
PL [4]: 140.4 mg/dL
RALB [4]: 3 g/dL
TBIL [4]: 0.022 mg/dL
TC [4]: 80 mg/dL
TG [4]: 39.4 mg/dL
TP [4]: 5.6 g/dL
gamma-GTP [4]: 2.8 IU/L
TERMINAL_BW [5]: 205.4 g
APTT [5]: 20.1 s
Bas [5]: 0%
Eos [5]: 1%
Fbg [5]: 285.6 mg/dL
Hb [5]: 13 g/dL
Ht [5]: 38.7%
Lym [5]: 75.2%
MCH [5]: 20.8 pg
MCHC [5]: 33.7%
MCV [5]: 61.8 fL
Mono [5]: 2.2%
Neu [5]: 20.8%
PT [5]: 15.9 s
Plat [5]: 132.3 x10_4/uL
RBC [5]: 626.8 x10_4/ul
Ret [5]: 4.7%
WBC [5]: 84.8 x10_2/uL
KIDNEY_L [5]: 0.9 g
KIDNEY_R [5]: 1 g
KIDNEY_TOTAL [5]: 1.9 g
LIVER [5]: 10.6 g
A/G [5]: 1.2
ALP [5]: 1934 IU/L
ALT [5]: 61.2 IU/L
AST [5]: 106.4 IU/L
BUN [5]: 16.6 mg/dL
CRE [5]: 0.2 mg/dL
Ca [5]: 10.9 mg/dL
Cl [5]: 107 meq/L
DBIL [5]: 0.01 mg/dL
GLC [5]: 160.2 mg/dL
IP [5]: 7.6 mg/dL
K [5]: 4.4 meq/L
LDH [5]: 202.2 IU/L
Na [5]: 142.2 meq/L
PL [5]: 161.2 mg/dL
RALB [5]: 2.8 g/dL
TBIL [5]: 0.028 mg/dL
TC [5]: 91.8 mg/dL
TG [5]: 49 mg/dL
TP [5]: 5.2 g/dL
gamma-GTP [5]: 2 IU/L
TERMINAL_BW [6]: 222.8 g
TERMINAL_BW [7]: 237.7 g
TERMINAL_BW [8]: 237.4 g
APTT [6]: 18.6 s
Bas [6]: 0%
Eos [6]: 0.6%
Fbg [6]: 247 mg/dL
Hb [6]: 14.2 g/dL
Ht [6]: 42.3%
Lym [6]: 80.4%
MCH [6]: 20.5 pg
MCHC [6]: 33.5%
MCV [6]: 61.2 fL
Mono [6]: 2.4%
Neu [6]: 15.4%
PT [6]: 15.9 s
Plat [6]: 123.2 x10_4/uL
RBC [6]: 691.6 x10_4/ul
Ret [6]: 3.7%
WBC [6]: 124.5 x10_2/uL
APTT [7]: 21.1 s
Bas [7]: 0%
Eos [7]: 0.2%
Fbg [7]: 177.8 mg/dL
Hb [7]: 15.1 g/dL
Ht [7]: 44.1%
Lym [7]: 74%
MCH [7]: 19.5 pg
MCHC [7]: 34.3%
MCV [7]: 56.9 fL
Mono [7]: 3.2%
Neu [7]: 21.4%
PT [7]: 18.3 s
Plat [7]: 117.4 x10_4/uL
RBC [7]: 775 x10_4/ul
Ret [7]: 2.4%
WBC [7]: 140.8 x10_2/uL
APTT [8]: 24.5 s
Bas [8]: 0%
Eos [8]: 0.5%
Fbg [8]: 140.8 mg/dL
Hb [8]: 16.7 g/dL
Ht [8]: 48.9%
Lym [8]: 53.8%
MCH [8]: 18.1 pg
MCHC [8]: 34.1%
MCV [8]: 53 fL
Mono [8]: 5%
Neu [8]: 39.8%
PT [8]: 20.1 s
Plat [8]: 79.2 x10_4/uL
RBC [8]: 924.8 x10_4/ul
Ret [8]: 2.1%
WBC [8]: 178.3 x10_2/uL
KIDNEY_L [6]: 1 g
KIDNEY_R [6]: 1 g
KIDNEY_TOTAL [6]: 2 g
KIDNEY_L [7]: 1.1 g
KIDNEY_R [7]: 1.1 g
KIDNEY_TOTAL [7]: 2.1 g
KIDNEY_L [8]: 1.1 g
KIDNEY_R [8]: 1.1 g
KIDNEY_TOTAL [8]: 2.2 g
LIVER [6]: 11.6 g
LIVER [7]: 10.6 g
LIVER [8]: 9.7 g
A/G [6]: 1.1
ALP [6]: 2330.2 IU/L
ALT [6]: 145.2 IU/L
AST [6]: 324.2 IU/L
BUN [6]: 19 mg/dL
CRE [6]: 0.2 mg/dL
Ca [6]: 10.4 mg/dL
Cl [6]: 107.6 meq/L
DBIL [6]: 0.094 mg/dL
GLC [6]: 152.2 mg/dL
IP [6]: 8.7 mg/dL
K [6]: 4.6 meq/L
LDH [6]: 230.6 IU/L
Na [6]: 144 meq/L
PL [6]: 179 mg/dL
RALB [6]: 2.7 g/dL
TBIL [6]: 0.1 mg/dL
TC [6]: 100 mg/dL
TG [6]: 30.2 mg/dL
TP [6]: 5.2 g/dL
gamma-GTP [6]: 7 IU/L
A/G [7]: 1.1
ALP [7]: 2530.2 IU/L
ALT [7]: 69 IU/L
AST [7]: 237.2 IU/L
BUN [7]: 16.6 mg/dL
CRE [7]: 0.2 mg/dL
Ca [7]: 9.7 mg/dL
Cl [7]: 106.8 meq/L
DBIL [7]: 0.3 mg/dL
GLC [7]: 135.6 mg/dL
IP [7]: 8.2 mg/dL
K [7]: 4.1 meq/L
LDH [7]: 250.8 IU/L
Na [7]: 141.8 meq/L
PL [7]: 126.4 mg/dL
RALB [7]: 2.5 g/dL
TBIL [7]: 0.3 mg/dL
TC [7]: 57.4 mg/dL
TG [7]: 22 mg/dL
TP [7]: 4.8 g/dL
gamma-GTP [7]: 6.6 IU/L
A/G [8]: 1
ALP [8]: 1953.8 IU/L
ALT [8]: 94 IU/L
AST [8]: 418 IU/L
BUN [8]: 13.5 mg/dL
CRE [8]: 0.2 mg/dL
Ca [8]: 9.1 mg/dL
Cl [8]: 107.8 meq/L
DBIL [8]: 1 mg/dL
GLC [8]: 116.5 mg/dL
IP [8]: 7.6 mg/dL
K [8]: 3.9 meq/L
LDH [8]: 377.5 IU/L
Na [8]: 140.5 meq/L
PL [8]: 96.5 mg/dL
RALB [8]: 2 g/dL
TBIL [8]: 1 mg/dL
TC [8]: 38 mg/dL
TG [8]: 29.8 mg/dL
TP [8]: 4 g/dL
gamma-GTP [8]: 15.2 IU/L
